In brackets after ≈: the same amount, converted by molar mass. Where a SMILES comes first, the peptide text is derived from it.
Tests used:
Assay in all cases: microbe, parasite or virus in culture
C. glabrata NCPF 8018 = type: cell-based; settings: for Modal MIC50 / Modal MIC90: NCPF 8018, 20 h; for MIC: Nakaseomyces glabratus, NCPF8018, read-out: Modal MIC (antibiogram)
Experimental: (§1) Antimicrobial activity was evaluated against a panel of 18 pathogens consisting of eight Gram-negative strains (E. coli NCTC 12923, E. coli LEC001, Pseudomonas aeruginosa PAO1, P. aeruginosa NCTC 13437, Acinetobacter baumannii ATCC 17978, A. baumannii AYE, Klebsiella pneumoniae M6, K. pneumoniae NCTC 13368), four Gram-positive strains (Staphylococcus aureus ATCC 9144, S. aureus NCTC 13616, S. aureus USA300, S. aureus 1199B) and six fungi (Candida auris TDG 1912, C. albicans NCPF 8018, C. krusei NCPF 3876, C. tropicalis NCPF 8760, and C. parapsilosis NCPF 3209). Pathogens were grown in noncation adjusted Mueller Hinton broth (MHB, for bacteria) or Roswell Park Memorial Institute (RPMI 1640) + 2% glucose (for fungi) at 37 °C with 180 rpm shaking and maintained on solid media (tryptic soy agar for bacteria and Sabouraud dextrose agar for fungi). For an antibiogram, see Suppl.
(§2) The 46 peptides were serially diluted (128 to 2 μg/mL) in media down polypropylene 96-well plates. Bacteria or fungi, diluted from an overnight culture to an OD600 of 0.01, were added to the serially diluted peptides at a 1:1 ratio resulting in a starting cell density of ∼5 × 10^5 CFU/mL. Plates were incubated at 37 °C for 20 h, and the optical density was determined spectrophotometrically at 600 nm. Minimum inhibition concentrations (MICs) were determined from a minimum of three biological repeats and are reported in μg/mL as well as μM. […] The MIC50 or MIC90 is defined as the lowest peptide concentration that results in 50% or 90% growth inhibition over a 20 h treatment period, respectively.

[1] = test system: C. parapsilosis NCPF 3209; type: cell-based; settings: for Modal MIC50 / Modal MIC90: NCPF 3209, 20 h; for MIC: Lodderomyces parapsilosis, NCPF3209, read-out: Modal MIC (antibiogram)
Experimental: as §1, §2

C. tropicalis NCPF 8760 = type: cell-based; settings: for Modal MIC50 / Modal MIC90: NCPF 8760, 20 h; for MIC: Candida tropicalis, NCPF8760, read-out: Modal MIC (antibiogram)
Experimental: as §1, §2

C. krusei NCPF 3876 = type: cell-based; settings: for Modal MIC50 / Modal MIC90: NCPF 3876, 20 h; for MIC: Pichia kudriavzevii, NCPF3876, read-out: Modal MIC (antibiogram)
Experimental: as §1, §2

C. albicans NCPF 3281 = type: cell-based; settings: for Modal MIC50 / Modal MIC90: NCPF 3281, 20 h; for MIC: Candida albicans, NCPF3281, read-out: Modal MIC (antibiogram)
Experimental: as §1, §2

[2] = test system: S. aureus (MSSA) ATCC 9144; type: cell-based, Staphylococcus aureus; settings: ATCC 9144, 20 h
Experimental: as §1, §2

E. coli NCTC 12923 = type: cell-based, Escherichia coli; settings: NCTC 12923, 20 h
Experimental: as §1, §2

A. baumannii ATCC 17978 = type: cell-based, Acinetobacter baumannii; settings: ATCC 17978, 20 h
Experimental: as §1, §2

A. baumannii AYE = type: cell-based, Acinetobacter baumannii; settings: AYE, 20 h
Experimental: as §1, §2

C. auris TDG 1912 = type: cell-based, Candida auris; settings: Candidozyma auris, TDG1912, read-out: Modal MIC (antibiogram)
Experimental: as §1, §2

Compound	Modal MIC50 (C. glabrata NCPF 8018)	Modal MIC90 (C. glabrata NCPF 8018)	Modal MIC50 [1]	Modal MIC90 [1]	Modal MIC50 (C. tropicalis NCPF 8760)	Modal MIC90 (C. tropicalis NCPF 8760)	Modal MIC50 (C. krusei NCPF 3876)	Modal MIC90 (C. krusei NCPF 3876)	Modal MIC50 (C. albicans NCPF 3281)	Modal MIC90 (C. albicans NCPF 3281)	Modal MIC [2]	Modal MIC (E. coli NCTC 12923)	Modal MIC (A. baumannii ATCC 17978)	Modal MIC (A. baumannii AYE)	MIC (C. auris TDG 1912)	MIC (C. glabrata NCPF 8018)	MIC [1]	MIC (C. tropicalis NCPF 8760)	MIC (C. krusei NCPF 3876)	MIC (C. albicans NCPF 3281)
CC[C@H](C)[C@H](NC(=O)CNC(=O)[C@H](CCCNC(=N)N)NC(=O)[C@@H](N)Cc1c[nH]c2ccccc12)C(=O)N[C@@H](CCCNC(=N)N)C(=O)NCC(=O)N[C@@H](Cc1ccc(O)cc1)C(=O)N[C@@H](CCCCN)C(=O)NCC(=O)NCC(=O)N[C@@H](Cc1ccc(O)cc1)C(=O)N[C@H](C(=O)NCC(=O)N[C@@H](CCCNC(=N)N)C(=O)N[C@@H](Cc1ccccc1)C(=O)N[C@@H](CCCCN)C(=O)N[C@@H](CCC(N)=O)C(=O)N[C@H](C(=O)N[C@@H](CCCCN)C(=O)N[C@@H](Cc1ccc(O)cc1)C(N)=O)[C@@H](C)O)[C@@H](C)O [W-OmB-Ca] (H-WRGIRGYKGGYTGRFKQTKY-NH2)	> 52.5 µM	> 52.5 µM	> 52.5 µM	> 52.5 µM	> 52.5 µM	> 52.5 µM	> 52.5 µM	> 52.5 µM	> 52.5 µM	> 52.5 µM	52.5 µM	52.5 µM	26.2 µM	13.1 µM	–	–	–	–	–	–
CC[C@H](C)[C@H](NC(=O)[C@H](CCCCN)NC(=O)[C@H](CC(C)C)NC(=O)[C@H](C)NC(=O)[C@H](C)NC(=O)[C@H](CCCCN)NC(=O)[C@H](CC(C)C)NC(=O)[C@H](C)NC(=O)[C@H](CCCCN)NC(=O)CN)C(=O)NCC(=O)N[C@@H](C)C(=O)N[C@@H](CC(N)=O)C(=O)N[C@H](C(=O)N[C@@H](CC(C)C)C(=O)NCC(=O)NCC(=O)N[C@@H](C)C(=O)N1CCC[C@H]1C(=O)N[C@@H](CCC(N)=O)C(N)=O)C(C)C [CPF-P3-20a] (H-GKALKAALKIGANVLGGAPQ-NH2)	> 65.7 µM	> 65.7 µM	> 65.7 µM	> 65.7 µM	> 65.7 µM	> 65.7 µM	> 65.7 µM	> 65.7 µM	> 65.7 µM	> 65.7 µM	–	65.7 µM	65.7 µM	65.7 µM	–	–	–	–	–	–
CC(C)C[C@H](NC(=O)CNC(=O)[C@H](Cc1ccccc1)NC(=O)[C@H](CCCCN)NC(=O)[C@H](Cc1ccccc1)NC(=O)[C@H](C)NC(=O)[C@@H](N)CCCCN)C(=O)N[C@@H](CCCCN)C(=O)N[C@H](C(=O)N[C@H](C(=O)NCC(=O)N[C@@H](CCCCN)C(N)=O)C(C)C)[C@@H](C)O [CPF-MW-12a] (H-KAFKFGLKTVGK-NH2)	> 95.5 µM	> 95.5 µM	> 95.5 µM	> 95.5 µM	> 95.5 µM	> 95.5 µM	> 95.5 µM	> 95.5 µM	> 95.5 µM	> 95.5 µM	–	–	–	–	–	–	–	–	–	–
C[C@@H]1[C@H](O)[C@@H](C)/C=C/C=C/C=C/C=C/C=C/C=C/C=C/[C@H](O[C@@H]2O[C@H](C)[C@@H](O)[C@H](N)[C@@H]2O)C[C@@H]2O[C@](O)(C[C@@H](O)C[C@@H](O)[C@H](O)CC[C@@H](O)C[C@@H](O)CC(=O)O[C@H]1C)C[C@H](O)[C@H]2C(=O)O [Amphotericin B, reference compound]	–	–	–	–	–	–	–	–	–	–	–	–	–	–	0.03 µg/mL (≈ 0.0325 µM)	0.03 µg/mL (≈ 0.0325 µM)	≤ 0.007 µg/mL	0.03 µg/mL (≈ 0.0325 µM)	0.06 µg/mL (≈ 0.0649 µM)	0.015 µg/mL (≈ 0.0162 µM)
C[C@@H](c1ncncc1F)[C@](O)(Cn1cncn1)c1ccc(F)cc1F [Voriconazole, reference compound]	–	–	–	–	–	–	–	–	–	–	–	–	–	–	1 µg/mL (≈ 2.86 µM)	0.125 µg/mL (≈ 0.358 µM)	≤ 0.007 µg/mL	0.5 µg/mL (≈ 1.43 µM)	0.06 µg/mL (≈ 0.172 µM)	≤ 0.007 µg/mL
OC(Cn1cncn1)(Cn1cncn1)c1ccc(F)cc1F [Fluconazole, reference compound]	–	–	–	–	–	–	–	–	–	–	–	–	–	–	> 128 µg/mL	4 µg/mL (≈ 13.1 µM)	0.25 µg/mL (≈ 0.816 µM)	16 µg/mL (≈ 52.2 µM)	8 µg/mL (≈ 26.1 µM)	0.06 to 0.125 µg/mL (≈ 0.196 to 0.408 µM)
CC[C@H](C)[C@H](NC(=O)[C@H](CCCCN)NC(=O)CNC(=O)[C@@H](N)CC(C)C)C(=O)N[C@@H](C)C(=O)N[C@@H](CCCCN)C(=O)N[C@H](C(=O)NCC(=O)N[C@@H](CC(C)C)C(=O)N[C@@H](CCCCN)C(N)=O)C(C)C [XPF10a] (H-LGKIAKVGLK-NH2)	> 120.6 µM	> 120.6 µM	> 120.6 µM	> 120.6 µM	> 120.6 µM	> 120.6 µM	> 120.6 µM	> 120.6 µM	> 120.6 µM	> 120.6 µM	–	–	–	–	–	–	–	–	–	–
Cc1ccc(Oc2ccccc2-c2csc(N=C3NCCCN3)n2)c(C)c1 [Abafungin, reference compound]	–	–	–	–	–	–	–	–	–	–	–	–	–	–	> 128 µg/mL	> 128 µg/mL	0.25 to 0.5 µg/mL (≈ 0.661 to 1.32 µM)	> 128 µg/mL	0.25 µg/mL (≈ 0.661 µM)	> 128 µg/mL
CC[C@H](C)C[C@H](C)CCCCCCCCC(=O)N[C@H]1C[C@@H](O)[C@@H](NCCN)NC(=O)[C@@H]2[C@@H](O)CCN2C(=O)[C@H]([C@H](O)CCN)NC(=O)[C@H]([C@H](O)[C@@H](O)c2ccc(O)cc2)NC(=O)[C@@H]2C[C@@H](O)CN2C(=O)[C@H]([C@@H](C)O)NC1=O [Caspofungin, reference compound]	–	–	–	–	–	–	–	–	–	–	–	–	–	–	0.03 µg/mL (≈ 0.0274 µM)	≤ 0.007 µg/mL	0.125 µg/mL (≈ 0.114 µM)	≤ 0.007 µg/mL	≤ 0.007 µg/mL	≤ 0.007 µg/mL
CC[C@H](C)[C@H](NC(=O)CNC(=O)[C@H](CCCCN)NC(=O)[C@@H](N)Cc1c[nH]c2ccccc12)C(=O)N[C@@H](CCCNC(=N)N)C(=O)NCC(=O)N[C@@H](Cc1ccc(O)cc1)C(=O)N[C@@H](CCCCN)C(=O)NCC(=O)NCC(=O)N[C@@H](Cc1ccc(O)cc1)C(=O)N[C@@H](CCCCN)C(=O)NCC(=O)N[C@@H](C)C(=O)N[C@@H](Cc1ccccc1)C(=O)N[C@@H](CCCCN)C(=O)N[C@@H](CCC(N)=O)C(=O)N[C@H](C(=O)N[C@@H](CCCCN)C(=O)N[C@@H](Cc1ccc(O)cc1)C(N)=O)[C@@H](C)O [W(Os-C)a] (H-WKGIRGYKGGYKGAFKQTKY-NH2)	> 54.4 µM	> 54.4 µM	> 54.4 µM	> 54.4 µM	> 54.4 µM	> 54.4 µM	> 54.4 µM	> 54.4 µM	> 54.4 µM	> 54.4 µM	54.4 µM	–	27.2 µM	13.6 µM	–	–	–	–	–	–
CC(C)C[C@H](NC(=O)CNC(=O)[C@H](Cc1ccccc1)NC(=O)[C@H](CCCCN)NC(=O)[C@H](Cc1ccccc1)NC(=O)[C@H](C)NC(=O)[C@@H](N)CCCCN)C(=O)N[C@@H](CCCCN)C(=O)N[C@H](C(=O)N[C@H](C(N)=O)C(C)C)[C@@H](C)O [CPF-MW-10a] (H-KAFKFGLKTV-NH2)	> 110.8 µM	> 110.8 µM	> 110.8 µM	> 110.8 µM	> 110.8 µM	> 110.8 µM	> 110.8 µM	> 110.8 µM	> 110.8 µM	> 110.8 µM	–	–	–	–	–	–	–	–	–	–

Reference: article PMC11191095, “QSAR Reveals Decreased Lipophilicity of Polar Residues Determines the Selectivity of Antimicrobial Peptide Activity” (ACS Omega, 2024)
